From patent publication US20090311217A1, “3-SUBSTITUTED-1H-INDOLE COMPOUNDS, THEIR USE AS MTOR KINASE AND PI3 KINASE INHIBITORS, AND THEIR SYNTHESES” (priority 2008, published 2009) come the findings set out here.

Holding throughout (format): biochemical
One test deals with PI3K-alpha (Homo sapiens, UniProt P42336). Briefly: PI3K-alpha fluorescence polarization assay. As to conditions: read-out: PI3Kα Avg. IC50. (Fluorescence polarisation rises when a labelled molecule tumbles more slowly, as on binding a larger partner.)
For another test, the target named is PI3K-gamma (Homo sapiens, UniProt P48736). Briefly: PI3K-gamma fluorescence polarization assay. The following applies: PI3Kγ Avg. IC50. In outline:
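FP competition read-out: PIP3 produced displaces BODIPY-TMR-IP4 (5 nM) from GST-GRP1 PH domain (100 nM). Kinase step: 5 ng enzyme, 2.5 μM diC8-PIP2, 25 μM ATP, pH 7 HEPES/MgCl2, 1 h, 25° C; EDTA stop.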

The target of another test is T1, human TOR (Homo sapiens, UniProt P42345).
T1 construct: FLAG
Briefly: mTOR enzyme assay (DELFIA, His6-S6K substrate). As to conditions: read-out: mTOR Kinase Avg. IC50.

PI3K-gamma, sequence (P48736 whole entry, species assumed, the tested form may be a part): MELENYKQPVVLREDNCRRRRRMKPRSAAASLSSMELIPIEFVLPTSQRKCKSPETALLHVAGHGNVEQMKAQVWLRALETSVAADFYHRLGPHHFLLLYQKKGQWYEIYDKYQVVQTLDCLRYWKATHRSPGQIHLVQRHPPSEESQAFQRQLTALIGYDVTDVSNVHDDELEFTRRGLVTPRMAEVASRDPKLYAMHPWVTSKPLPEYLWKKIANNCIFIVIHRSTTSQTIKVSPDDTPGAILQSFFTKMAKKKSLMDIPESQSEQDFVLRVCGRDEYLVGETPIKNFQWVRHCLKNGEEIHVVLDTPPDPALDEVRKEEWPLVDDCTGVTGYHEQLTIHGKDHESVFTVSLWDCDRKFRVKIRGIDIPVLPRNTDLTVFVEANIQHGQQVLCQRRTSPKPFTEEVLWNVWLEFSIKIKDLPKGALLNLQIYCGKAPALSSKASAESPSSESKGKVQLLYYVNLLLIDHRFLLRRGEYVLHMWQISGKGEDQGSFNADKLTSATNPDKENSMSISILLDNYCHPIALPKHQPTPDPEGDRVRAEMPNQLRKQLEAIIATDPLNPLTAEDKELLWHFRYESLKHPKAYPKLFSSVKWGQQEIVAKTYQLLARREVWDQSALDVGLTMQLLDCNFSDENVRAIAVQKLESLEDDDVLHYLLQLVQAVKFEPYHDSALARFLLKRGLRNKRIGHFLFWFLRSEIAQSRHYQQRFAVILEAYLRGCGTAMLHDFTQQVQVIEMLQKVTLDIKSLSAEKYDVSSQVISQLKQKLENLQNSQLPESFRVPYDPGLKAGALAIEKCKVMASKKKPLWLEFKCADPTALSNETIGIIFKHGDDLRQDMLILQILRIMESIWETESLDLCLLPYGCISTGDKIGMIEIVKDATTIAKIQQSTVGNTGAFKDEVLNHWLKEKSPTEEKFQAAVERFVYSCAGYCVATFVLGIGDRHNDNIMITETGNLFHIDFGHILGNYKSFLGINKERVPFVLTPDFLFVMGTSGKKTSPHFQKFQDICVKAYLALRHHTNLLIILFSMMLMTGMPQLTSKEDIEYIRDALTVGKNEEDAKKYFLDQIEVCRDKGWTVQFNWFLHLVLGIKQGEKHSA
PI3K-alpha, sequence (P42336 whole entry, species assumed): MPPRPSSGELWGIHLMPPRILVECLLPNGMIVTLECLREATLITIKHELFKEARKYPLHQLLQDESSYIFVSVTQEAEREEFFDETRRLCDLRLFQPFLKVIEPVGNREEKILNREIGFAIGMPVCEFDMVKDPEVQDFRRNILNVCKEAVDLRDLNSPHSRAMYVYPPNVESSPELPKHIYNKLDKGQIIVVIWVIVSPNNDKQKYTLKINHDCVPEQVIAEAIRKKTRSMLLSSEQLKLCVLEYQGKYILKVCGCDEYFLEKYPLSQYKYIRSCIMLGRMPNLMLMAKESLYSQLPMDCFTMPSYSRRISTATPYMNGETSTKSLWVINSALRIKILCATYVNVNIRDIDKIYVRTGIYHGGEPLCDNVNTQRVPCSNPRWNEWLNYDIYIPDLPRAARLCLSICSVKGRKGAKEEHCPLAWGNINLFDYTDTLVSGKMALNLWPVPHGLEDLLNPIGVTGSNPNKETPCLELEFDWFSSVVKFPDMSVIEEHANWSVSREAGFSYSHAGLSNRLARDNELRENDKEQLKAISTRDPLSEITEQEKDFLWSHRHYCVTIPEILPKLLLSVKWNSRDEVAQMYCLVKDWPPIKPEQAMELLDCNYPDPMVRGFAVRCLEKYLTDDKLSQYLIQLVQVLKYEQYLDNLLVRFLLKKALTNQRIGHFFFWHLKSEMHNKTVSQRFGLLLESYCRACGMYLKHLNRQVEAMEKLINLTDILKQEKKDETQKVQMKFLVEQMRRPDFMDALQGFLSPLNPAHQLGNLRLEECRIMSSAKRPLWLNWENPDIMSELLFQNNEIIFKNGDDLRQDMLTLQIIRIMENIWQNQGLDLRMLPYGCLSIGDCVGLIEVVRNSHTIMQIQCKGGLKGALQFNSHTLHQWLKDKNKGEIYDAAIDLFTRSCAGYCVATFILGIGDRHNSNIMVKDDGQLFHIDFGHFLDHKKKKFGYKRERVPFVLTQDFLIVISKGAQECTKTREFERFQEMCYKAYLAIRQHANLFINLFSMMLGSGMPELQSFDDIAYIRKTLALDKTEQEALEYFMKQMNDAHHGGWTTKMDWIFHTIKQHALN
PI3K-alpha, sequence (P27986 whole entry partner, species assumed): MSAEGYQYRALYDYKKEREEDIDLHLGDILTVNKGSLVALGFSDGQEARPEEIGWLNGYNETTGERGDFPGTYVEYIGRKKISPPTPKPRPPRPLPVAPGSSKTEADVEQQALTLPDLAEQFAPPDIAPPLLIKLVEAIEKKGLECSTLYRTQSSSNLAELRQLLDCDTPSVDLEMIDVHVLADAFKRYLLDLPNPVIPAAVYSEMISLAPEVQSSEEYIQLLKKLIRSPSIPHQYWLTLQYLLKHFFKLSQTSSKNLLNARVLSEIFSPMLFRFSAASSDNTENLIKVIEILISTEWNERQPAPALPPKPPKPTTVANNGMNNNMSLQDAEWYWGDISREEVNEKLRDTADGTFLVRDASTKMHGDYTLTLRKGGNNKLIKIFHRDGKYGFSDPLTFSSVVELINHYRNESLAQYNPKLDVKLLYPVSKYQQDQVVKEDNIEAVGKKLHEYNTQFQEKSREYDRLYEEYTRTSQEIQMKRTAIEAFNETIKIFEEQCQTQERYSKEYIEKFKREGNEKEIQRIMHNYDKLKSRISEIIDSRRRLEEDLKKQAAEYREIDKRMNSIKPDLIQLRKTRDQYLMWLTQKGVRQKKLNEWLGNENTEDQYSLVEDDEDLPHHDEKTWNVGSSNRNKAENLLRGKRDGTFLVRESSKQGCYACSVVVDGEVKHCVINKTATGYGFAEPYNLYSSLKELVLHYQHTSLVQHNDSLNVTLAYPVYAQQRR

Take `COc1ccc2c(c1)c(/C=C1\Oc3cc(O)cc(O)c3C1=O)c(C1CC1)n2CCO` [Example 313, (2Z)-2-{[2-Cyclopropyl-1-(2-hydroxyethyl)-5-methoxy-1H-indol-3-yl]methylene}-4,6-dihydroxy-1-benzofuran-3(2H)-one]: the IC50 (usually the midpoint of a concentration-inhibition curve) turned out to be 3 nM at PI3K-alpha, 16.5 nM on PI3K-gamma and 0.53 nM on human TOR.

Regarding `Cn1cc(C=C2Oc3cc(O)cc(O)c3C2=O)c2cc([N+](=O)[O-])ccc21` [Example 228, 4,6-dihydroxy-2-[(1-methyl-5-nitro-1H-indol-3-yl)methylene]-1-benzofuran-3(2H)-one], the IC50 at PI3K-alpha is 3570 nM; at PI3K-gamma, greater than 10000 nM; at human TOR, 980 nM.

As for `Cn1cc(/C=C2\Oc3cc(O)cc(O)c3C2=O)c2c(-c3ccc([N+](=O)[O-])cc3)cccc21` [Example 420, (2Z)-4,6-Dihydroxy-2-{[1-methyl-4-(4-nitrophenyl)-1H-indol-3-yl]methylene}-1-benzofuran-3(2H)-one], the IC50 was 708 nM on PI3K-alpha, greater than 10000 nM on PI3K-gamma and 31.5 nM at human TOR.

On to `Cn1cc(/C=C2\Oc3cc(O)cc(O)c3C2=O)c2c(-c3ccsc3)cccc21` [Example 374, (2Z)-4,6-Dihydroxy-2-{[1-methyl-4-(3-thienyl)-1H-indol-3-yl]methylene}-1-benzofuran-3(2H)-one], for which the IC50 at PI3K-alpha amounted to 2610 nM; against PI3K-gamma, 4200 nM; on human TOR, 110 nM.

On to `COc1ccc(Br)c2c1C(=O)/C(=C/c1cn(C)c3cccc(-c4ccccc4)c13)O2` [Example 423, (2Z)-7-Bromo-4-methoxy-2-[(1-methyl-4-phenyl-1H-indol-3-yl)methylene]benzofuran-3(2H)-one], for which the IC50 at PI3K-alpha was greater than 10000 nM; against PI3K-gamma it was greater than 10000 nM; on human TOR, greater than 20000 nM.

Take `Cn1c(-c2ccncc2)c(C=C2Oc3cc(O)cc(O)c3C2=O)c2ccccc21` [Example 190, 4,6-dihydroxy-2-[(1-methyl-2-pyridin-4-y1-1H-indol-3-yl)methylene]-1-benzofuran-3(2H)-one]: the IC50 was 2120 nM at PI3K-alpha, 8540 nM on PI3K-gamma and 120 nM on human TOR.

For the compound `CCn1c(C)c(/C=C2\Oc3ccc(NC(=O)Nc4ccc(S(=O)(=O)N5CCN(C)CC5)cc4)cc3C2=O)c2cc(OC)ccc21` [Compound 677, 1-{(2Z)-2-[(1-ethyl-5-methoxy-2-methyl-1H-indol-3-yl)methylidene]-3-oxo-2,3-dihydro-1-benzofuran-5-yl}-3-{4-[(4-methylpiperazin-1-yl)sulfonyl]phenyl}urea], the figures for the IC50 at PI3K-alpha, against PI3K-gamma and on human TOR were 19 nM, 144 nM and 595 nM, respectively.

`COc1ccc2[nH]cc(/C=C3\Oc4c(ccc(O)c4O)C3=O)c2c1` [Example 62, (2Z)-6,7-dihydroxy-2-[(5-methoxy-1H-indol-3-yl)methylene]-1-benzofuran-3(2H)-one]: the results for the half-inhibitory concentration (IC50) at PI3K-alpha, against PI3K-gamma and on human TOR were 673 nM, 3770 nM and 16000 nM, respectively.

As to `COc1cc(F)c2[nH]c(-c3c(C)nn(C)c3C)c(/C=C3\Oc4ccc(NC(=O)NCCN5CCCC5)cc4C3=O)c2c1` [Compound 727, 1-[(2Z)-2-{[7-fluoro-5-methoxy-2-(1,3,5-trimethyl-1H-pyrazol-4-yl)-1H-indol-3-yl]methylidene}-3-oxo-2,3-dihydro-1-benzofuran-5-yl]-3-(2-pyrrolidin-1-ylethyl)urea], the IC50 at PI3K-alpha worked out at 1.45 nM; against PI3K-gamma, 6.25 nM; on human TOR it was 48 nM.

In the case of `CNC(=O)Nc1ccc2c(c1)C(=O)/C(=C/c1c(-c3ccc(CN(C)C)cc3)n(CCN3CCN(C)CC3)c3ccc(OC)cc13)O2` [Compound 630, 1-{(2Z)-2-[(2-{4-[(dimethylamino)methyl]phenyl}-5-methoxy-1-[2-(4-methylpiperazin-1-yl)ethyl]-1H-indol-3-yl)methylidene]-3-oxo-2,3-dihydro-1-benzofuran-5-yl}-3-methylurea], the IC50 is 1.15 nM at PI3K-alpha, 157 nM against PI3K-gamma and 200 nM on human TOR.

Regarding `COc1cc(F)c2[nH]c(-c3c(C)nn(C)c3C)c(/C=C3\Oc4ccc(NC(=O)Nc5ccc(C(=O)N6CCN(C)C(C)C6)cc5)cc4C3=O)c2c1` (stereo not drawn) [Compound 730, 1-{4-[(3,4-dimethylpiperazin-1-yl)carbonyl]phenyl}-3-[(2Z)-2-{[7-fluoro-5-methoxy-2-(1,3,5-trimethyl-1H-pyrazol-4-yl)-1H-indol-3-yl]methylidene}-3-oxo-2,3-dihydro-1-benzofuran-5-yl]urea], the IC50 at PI3K-alpha was found to be 0.65 nM; at PI3K-gamma, 1.9 nM; at human TOR, 3 nM.

For the compound `N#CCCCCCn1c(-c2ccccc2)c(C=C2Oc3cc(O)cc(O)c3C2=O)c2ccccc21` [Example 225, 6-{3-[(4,6-dihydroxy-3-oxo-1-benzofuran-2(3H)-ylidene)methyl]-2-phenyl-1H-indol-1-yl}hexanenitrile], the results for the IC50 on PI3K-alpha, at PI3K-gamma and at human TOR were 968 nM, greater than 10000 nM and 700 nM, respectively.

Turning to `COc1cc(F)c2[nH]c(-c3c(C)nn(C)c3C)c(/C=C3\Oc4ccc(NC(=O)Nc5ccc(C(=O)N6CCC(N(C)C)C6)cc5)cc4C3=O)c2c1` (stereo not drawn) [Compound 732, 1-(4-{[3-(dimethylamino)pyrrolidin-1-yl]carbonyl}phenyl)-3-[(2Z)-2-{[7-fluoro-5-methoxy-2-(1,3,5-trimethyl-1H-pyrazol-4-yl)-1H-indol-3-yl]methylidene}-3-oxo-2,3-dihydro-1-benzofuran-5-yl]urea], the IC50 on PI3K-alpha turned out to be 0.33 nM; against PI3K-gamma, 1.9 nM; at human TOR it was 1 nM.

Consider `CCn1c(C)c(/C=C2\Oc3ccc(NC(=O)Nc4ccc(NCCN(C)C)cc4)cc3C2=O)c2cc(OC)ccc21` [Compound 678, 1-(4-{[2-(dimethylamino)ethyl]amino}phenyl)-3-{(2Z)-2-[(1-ethyl-5-methoxy-2-methyl-1H-indol-3-yl)methylidene]-3-oxo-2,3-dihydro-1-benzofuran-5-yl}urea], for which the results for the IC50 at PI3K-alpha, at PI3K-gamma and on human TOR were 3 nM, 14.5 nM and 130 nM, respectively.

As to `COc1ccc2[nH]c(-c3c(C)nn(C)c3C)c(/C=C3\Oc4ccc(NC(=O)Nc5ccc(NC(=O)CCN(C)C)cc5)cc4C3=O)c2c1` [Compound 691, N-[4-({[(2Z)-2-{[5-methoxy-2-(1,3,5-trimethyl-1H-pyrazol-4-yl)-1H-indol-3-yl]methylidene}-3-oxo-2,3-dihydro-1-benzofuran-5-yl]carbamoyl}amino)phenyl]-N3,N3-dimethyl-b-alaninamide], the IC50 stood at 0.25 nM at PI3K-alpha, 2.1 nM against PI3K-gamma and 1 nM at human TOR.

As for `CN(C)CCn1c(-c2ccccc2)c(C=C2Oc3cc(O)cc(O)c3C2=O)c2ccccc21` [Example 148, 2-({1-[2-(dimethylamino)ethyl]-2-phenyl-1H-indol-3-yl}methylene)-4,6-dihydroxy-1-benzofuran-3(2H)-one], the values for the IC50 on PI3K-alpha, on PI3K-gamma and on human TOR were 2680 nM, 4710 nM and 500 nM, respectively.

For the compound `CCn1c(C)c(/C=C2\Oc3ccc(NC(=O)Nc4ccc(C(=O)C5CCN(C)CC5)cc4)cc3C2=O)c2cc(OC)ccc21` [Compound 651, 1-{(2Z)-2-[(1-ethyl-5-methoxy-2-methyl-1H-indol-3-yl)methylene]-3-oxo-2,3-dihydro-1-benzofuran-5-yl}-3-{4-[(1-methylpiperidin-4-yl)carbonyl]phenyl}urea], the IC50 on PI3K-alpha stood at 0.9 nM; against PI3K-gamma it was 19.7 nM; at human TOR, 783 nM.

Take `CNC(=O)Nc1ccc2c(c1)C(=O)/C(=C/c1c(-c3c(C)nn(CCN(C)C)c3C)[nH]c3ccc(OC)cc13)O2` [Compound 705, 1-{(2Z)-2-[(2-{1-[2-(dimethylamino)ethyl]-3,5-dimethyl-1H-pyrazol-4-yl}-5-methoxy-1H-indol-3-yl)methylidene]-3-oxo-2,3-dihydro-1-benzofuran-5-yl}-3-methylurea]: the IC50 came out at 5.5 nM on PI3K-alpha, 25.5 nM against PI3K-gamma and 26 nM on human TOR.

Take `COc1ccc2c(c1)O/C(=C\c1c[nH]c3ccc(OC)cc13)C2=O` [Example 384, (2Z)-6-Methoxy-2-[(5-methoxy-1H-indol-3-yl)methylene]-1-benzofuran-3(2H)-one]: the IC50 on PI3K-alpha was greater than 10000 nM; against PI3K-gamma it was 2450 nM; at human TOR it was greater than 20000 nM.

With `O=C1C(=Cc2c[nH]c3ccc(F)cc23)Oc2cc(O)cc(O)c21` [Example 175, 2-[(5-fluoro-1H-indol-3-yl)methylene]-4,6-dihydroxy-1-benzofuran-3(2H)-one], the IC50 at PI3K-alpha was 1040 nM; against PI3K-gamma, greater than 10000 nM; on human TOR, 9000 nM.

Consider `CCn1c(C)c(/C=C2\Oc3ccc(NC(=O)Nc4ccc(N(C)CCN(C)C)cc4)cc3C2=O)c2cc(OC)ccc21` [Compound 652, 1-(4-{[2-(dimethylamino)ethyl](methyl)amino}phenyl)-3-{(2Z)-2-[(1-ethyl-5-methoxy-2-methyl-1H-indol-3-yl)methylene]-3-oxo-2,3-dihydro-1-benzofuran-5-yl}urea], for which the IC50 on PI3K-alpha is 3.5 nM; at PI3K-gamma, 18 nM; on human TOR, 135 nM.

On to `O=C1C(=Cc2c[nH]c3c(OCc4ccccc4)cccc23)Oc2cc(O)cc(O)c21` [Example 242, 2-{[7-(benzyloxy)-1H-indol-3-yl]methylene}-4,6-dihydroxy-1-benzofuran-3(2H)-one], for which the IC50 on PI3K-alpha is 1000 nM; at PI3K-gamma, greater than 10000 nM; at human TOR, greater than 20000 nM.

Turning to `COc1ccc2c(c1)c(/C=C1\Oc3cc(O)cc(O)c3C1=O)c(C1CC1)n2CCN1CCC(O)CC1` [Example 315, (2Z)-2-({2-Cyclopropyl-1-[2-(4-hydroxypiperidin-1-yl)ethyl]-5-methoxy-1H-indol-3-yl}methylene)-4,6-dihydroxy-1-benzofuran-3(2H)-one], the half-maximal inhibitory concentration (IC50) on PI3K-alpha turned out to be 3 nM; against PI3K-gamma it was 26.5 nM; at human TOR it was 4.2 nM.
